Assay results published in patent US6358885B1, “Substituted phenylheterocyclic herbicides” (Mississippi State University, priority 1992, dated 2002).

Key:
Experiment in all cases: Test G preemergence/postemergence greenhouse plant response rating 0 to 100
yellow nutsedge = type: in vivo, Cyperus esculentus; settings: Rate 125 g/ha, 0 to 100 scale
Excerpt: (§1) Seeds, rhizomes, or plant parts of alfalfa (Medicago ativa), annual bluegrass (Poa annua), bermudagrass (Cynodon dactylon), broadleaf signalgrass (Brachiaria plantaginea), common purslane (Portulaca oleracea), common ragweed (Ambrosia elatior), […] (Paspalum dilatatum), goosegrass (Eleusine indica), guineagrass (Panicum maximum), […] exaltata), johnsongrass (Sorghum halepense), large crabgrass (Digitaria sanguinalis), peanut (Arachis hypoagaea), pitted morningglory (Ipomoea lacunosa), purple nutsedge (Cyperus rotundus), sandbur (Cenchrus echinatus), smooth crabgrass (Digitaria ischaemum) and yellow nutsedge (Cyperus esculentus) were planted into greenhouse pots containing greenhouse planting medium. Each pot contained only one plant species. The test compound was dissolved in a non-phytotoxic solvent and applied preemergence and/or postemergence to the plants. Preemergence applications were made within one day of planting the seeds or plant parts. Postemergence applications were applied when the plants were in the two to four leaf stage (three to twenty cm). Test chemicals were dissolved in a non-phytotoxic solvent and applied preemergence and postemergence to the plants. Untreated control plants and treated plants were placed in the greenhouse and visually evaluated for injury at 13 to 21 days after herbicide application. […] A dash (-) response indicates no test result.

common purslane = type: in vivo, Portulaca oleracea; settings: 0 to 100 scale
Excerpt: as §1

alfalfa = type: in vivo, Medicago ativa; settings: 0 to 100 scale
Excerpt: as §1

peanut = type: in vivo, Arachis hypoagaea; settings: 0 to 100 scale
Excerpt: as §1

pitted morningglory = type: in vivo, Ipomoea lacunosa; settings: 0 to 100 scale
Excerpt: as §1

guineagrass = type: in vivo, Panicum maximum; settings: 0 to 100 scale
Excerpt: as §1

dallisgrass = type: in vivo, Paspalum dilatatum; settings: 0 to 100 scale
Excerpt: as §1

purple nutsedge = type: in vivo, Cyperus rotundus; settings: Rate 125 g/ha, 0 to 100 scale
Excerpt: as §1

common ragweed = type: in vivo, Ambrosia elatior; settings: 0 to 100 scale
Excerpt: as §1

johnsongrass = type: in vivo, Sorghum halepense; settings: 0 to 100 scale
Excerpt: as §1

smooth crabgrass = type: in vivo, Digitaria ischaemum; settings: 0 to 100 scale
Excerpt: as §1

broadleaf signalgrass = type: in vivo, Brachiaria plantaginea; settings: 0 to 100 scale
Excerpt: as §1

itchgrass = type: in vivo, Rottboellia exaltata; settings: 0 to 100 scale
Excerpt: as §1

annual bluegrass = type: in vivo, Poa annua; settings: 0 to 100 scale
Excerpt: as §1

sandbur = type: in vivo, Cenchrus echinatus; settings: 0 to 100 scale
Excerpt: as §1

goosegrass = type: in vivo, Eleusine indica; settings: 0 to 100 scale
Excerpt: as §1

Compound: CC(C)Oc1cc(-c2nn3c(c2Cl)CCCC3)c(F)cc1Cl [Compound 21]
- Plant response rating, Yellow Nutsedge (yellow nutsedge; POSTEMERGENCE): 0
- Plant response rating, Yellow Nutsedge (yellow nutsedge; PREEMERGENCE): 0
- Plant response rating, Cmn Purslane (common purslane; POSTEMERGENCE, Rate 125 g/ha): 70
- Plant response rating, Cmn Purslane (common purslane; POSTEMERGENCE, Rate 250 g/ha): 90
- Plant response rating, Cmn Purslane (common purslane; PREEMERGENCE, Rate 125 g/ha): 100
- Plant response rating, Cmn Purslane (common purslane; PREEMERGENCE, Rate 250 g/ha): 0
- Plant response rating, Alfalfa Var. (alfalfa; POSTEMERGENCE, Rate 125 g/ha): 0
- Plant response rating, Alfalfa Var. (alfalfa; POSTEMERGENCE, Rate 250 g/ha): 0
- Plant response rating, Alfalfa Var. (alfalfa; PREEMERGENCE, Rate 125 g/ha): 0
- Plant response rating, Alfalfa Var. (alfalfa; PREEMERGENCE, Rate 250 g/ha): 0
- Plant response rating, Peanuts (peanut; POSTEMERGENCE, Rate 125 g/ha): 0
- Plant response rating, Peanuts (peanut; POSTEMERGENCE, Rate 250 g/ha): 0
- Plant response rating, Peanuts (peanut; PREEMERGENCE, Rate 125 g/ha): 0
- Plant response rating, Peanuts (peanut; PREEMERGENCE, Rate 250 g/ha): 20
- Plant response rating, Pit Morninglory (pitted morningglory; POSTEMERGENCE, Rate 125 g/ha): 0
- Plant response rating, Pit Morninglory (pitted morningglory; POSTEMERGENCE, Rate 250 g/ha): 20
- Plant response rating, Pit Morninglory (pitted morningglory; PREEMERGENCE, Rate 125 g/ha): 0
- Plant response rating, Pit Morninglory (pitted morningglory; PREEMERGENCE, Rate 250 g/ha): 20
- Plant response rating, Guineagrass (guineagrass; POSTEMERGENCE, Rate 125 g/ha): 0
- Plant response rating, Guineagrass (guineagrass; POSTEMERGENCE, Rate 250 g/ha): 0
- Plant response rating, Guineagrass (guineagrass; PREEMERGENCE, Rate 125 g/ha): 100
- Plant response rating, Guineagrass (guineagrass; PREEMERGENCE, Rate 250 g/ha): 0
- Plant response rating, Dallisgrass (dallisgrass; POSTEMERGENCE, Rate 125 g/ha): 0
- Plant response rating, Dallisgrass (dallisgrass; POSTEMERGENCE, Rate 250 g/ha): 0
- Plant response rating, Dallisgrass (dallisgrass; PREEMERGENCE, Rate 125 g/ha): 20
- Plant response rating, Dallisgrass (dallisgrass; PREEMERGENCE, Rate 250 g/ha): 40
- Plant response rating, Purple Nutsedge (purple nutsedge; POSTEMERGENCE): 0
- Plant response rating, Purple Nutsedge (purple nutsedge; PREEMERGENCE): 0
- Plant response rating, Cmn Ragweed (common ragweed; POSTEMERGENCE, Rate 125 g/ha): 0
- Plant response rating, Cmn Ragweed (common ragweed; POSTEMERGENCE, Rate 250 g/ha): 100
- Plant response rating, Cmn Ragweed (common ragweed; PREEMERGENCE, Rate 125 g/ha): 50
- Plant response rating, Cmn Ragweed (common ragweed; PREEMERGENCE, Rate 250 g/ha): 50
- Plant response rating, Johnsongrass (johnsongrass; POSTEMERGENCE, Rate 125 g/ha): 0
- Plant response rating, Johnsongrass (johnsongrass; POSTEMERGENCE, Rate 250 g/ha): 0
- Plant response rating, Johnsongrass (johnsongrass; PREEMERGENCE, Rate 125 g/ha): 30
- Plant response rating, Johnsongrass (johnsongrass; PREEMERGENCE, Rate 250 g/ha): 0
- Plant response rating, Smooth Crabgras (smooth crabgrass; POSTEMERGENCE, Rate 125 g/ha): 0
- Plant response rating, Smooth Crabgras (smooth crabgrass; POSTEMERGENCE, Rate 250 g/ha): 0
- Plant response rating, Smooth Crabgras (smooth crabgrass; PREEMERGENCE, Rate 125 g/ha): 70
- Plant response rating, Smooth Crabgras (smooth crabgrass; PREEMERGENCE, Rate 250 g/ha): 20
- Plant response rating, Brdlf Sgnlgrass (broadleaf signalgrass; POSTEMERGENCE, Rate 125 g/ha): 0
- Plant response rating, Brdlf Sgnlgrass (broadleaf signalgrass; POSTEMERGENCE, Rate 250 g/ha): 0
- Plant response rating, Brdlf Sgnlgrass (broadleaf signalgrass; PREEMERGENCE, Rate 125 g/ha): 0
- Plant response rating, Brdlf Sgnlgrass (broadleaf signalgrass; PREEMERGENCE, Rate 250 g/ha): 0
- Plant response rating, Itchgrass (itchgrass; POSTEMERGENCE, Rate 125 g/ha): 0
- Plant response rating, Itchgrass (itchgrass; POSTEMERGENCE, Rate 250 g/ha): 0
- Plant response rating, Itchgrass (itchgrass; PREEMERGENCE, Rate 125 g/ha): 60
- Plant response rating, Itchgrass (itchgrass; PREEMERGENCE, Rate 250 g/ha): 0
- Plant response rating, Ann Bluegrass (annual bluegrass; POSTEMERGENCE, Rate 125 g/ha): 0
- Plant response rating, Ann Bluegrass (annual bluegrass; POSTEMERGENCE, Rate 250 g/ha): 0
- Plant response rating, Ann Bluegrass (annual bluegrass; PREEMERGENCE, Rate 125 g/ha): 30
- Plant response rating, Ann Bluegrass (annual bluegrass; PREEMERGENCE, Rate 250 g/ha): 0
- Plant response rating, S. Sandbur (sandbur; POSTEMERGENCE, Rate 125 g/ha): 0
- Plant response rating, S. Sandbur (sandbur; POSTEMERGENCE, Rate 250 g/ha): 0
- Plant response rating, S. Sandbur (sandbur; PREEMERGENCE, Rate 125 g/ha): 0
- Plant response rating, S. Sandbur (sandbur; PREEMERGENCE, Rate 250 g/ha): 0
- Plant response rating, Goosegrass (goosegrass; POSTEMERGENCE, Rate 125 g/ha): 0
- Plant response rating, Goosegrass (goosegrass; POSTEMERGENCE, Rate 250 g/ha): 0
- Plant response rating, Goosegrass (goosegrass; PREEMERGENCE, Rate 125 g/ha): 100
- Plant response rating, Goosegrass (goosegrass; PREEMERGENCE, Rate 250 g/ha): 70
